{"source": "paper PMC8896928", "about": "“Preparation, Characterization, and Preliminary Imaging Study of [^188Re]Re-Ibandronate as a Novel Theranostic Radiopharmaceutical for Bone Metastasis” (Contrast Media & Molecular Imaging, 2022)", "system": "nude mice of bone metastasis model (PC-3, MDA-MB-231, left tibia)", "protocol": "The nude mice of the bone metastasis model were established by tibial bone marrow injection. The specific methods were as follows: 25 μL of prostate cancer PC-3 and breast cancer MDA-MB-231 cell culture medium were injected into the left tibial bone marrow cavity of healthy male and female nude mice, respectively. At approximately 3-4 weeks after inoculation, they were scanned by microcomputed tomography (CT, SIEMENS InveonTM, Munich, Germany) to determine the condition of the model. […] Bone metastases were initially evaluated by CT and confirmed by pathology after the completion of related studies.\nTen PC-3 and ten MDA-MB-231 nude mice with bone metastasis were randomly divided into five groups. The mice were sacrificed by CO2 asphyxiation at 1 h, 3 h, 6 h, 24 h, and 48 h. The important tissue and organ samples were collected for the biodistribution study.", "note": "Read-outs that look alike come from different tables or passages of the source.", "data": [{"smiles": "CCCCCN(C)CCC1(O)P(=O)(O)[O][188Re]2([OH])([OH])([O]P1(=O)O)[O]P(=O)(O)C(O)(CCN(C)CCCCC)P(=O)(O)[O]2", "note": "(stereo not drawn) [[^188Re]Re-IBA]", "values": [{"measurement": "%ID/g Blood", "setting": "1 h", "value": "1.704 ± 0.348", "unit": "%ID/g"}, {"measurement": "%ID/g Brain", "setting": "1 h", "value": "0.098 ± 0.046", "unit": "%ID/g"}, {"measurement": "%ID/g CB (contralateral bone)", "setting": "1 h", "value": "9.331 ± 0.541", "unit": "%ID/g"}, {"measurement": "%ID/g CS (contralateral muscle)", "setting": "1 h", "value": "0.578 ± 0.043", "unit": "%ID/g"}, {"measurement": "%ID/g Gonad", "setting": "1 h", "value": "0.439 ± 0.162", "unit": "%ID/g"}, {"measurement": "%ID/g Heart", "setting": "1 h", "value": "0.595 ± 0.099", "unit": "%ID/g"}, {"measurement": "%ID/g Kidney", "setting": "1 h", "value": "6.004 ± 0.523", "unit": "%ID/g"}, {"measurement": "%ID/g Liver", "setting": "1 h", "value": "1.236 ± 0.219", "unit": "%ID/g"}, {"measurement": "%ID/g Lung", "setting": "1 h", "value": "1.135 ± 0.209", "unit": "%ID/g"}, {"measurement": "%ID/g MB (model bone)", "setting": "1 h", "value": "8.329 ± 0.329", "unit": "%ID/g"}, {"measurement": "%ID/g Small intestine", "setting": "1 h", "value": "0.718 ± 0.073", "unit": "%ID/g"}, {"measurement": "%ID/g Spleen", "setting": "1 h", "value": "0.530 ± 0.124", "unit": "%ID/g"}, {"measurement": "%ID/g Stomach", "setting": "1 h", "value": "3.056 ± 0.321", "unit": "%ID/g"}, {"measurement": "%ID/g Thyroid gland", "setting": "1 h", "value": "0.625 ± 0.309", "unit": "%ID/g"}, {"measurement": "CB/CS ratio", "setting": "1 h", "value": 16.144}, {"measurement": "CB/heart ratio", "setting": "1 h", "value": 15.682}, {"measurement": "CB/liver ratio", "setting": "1 h", "value": 7.549}, {"measurement": "MB/CB ratio", "setting": "1 h", "value": 0.893}, {"measurement": "MB/CS ratio", "setting": "1 h", "value": 14.411}, {"measurement": "MB/heart ratio", "setting": "1 h", "value": 14.003}, {"measurement": "MB/liver ratio", "setting": "1 h", "value": 6.738}, {"measurement": "%ID/g Blood", "setting": "3 h", "value": "0.531 ± 0.092", "unit": "%ID/g"}, {"measurement": "%ID/g Brain", "setting": "3 h", "value": "0.082 ± 0.017", "unit": "%ID/g"}, {"measurement": "%ID/g CB (contralateral bone)", "setting": "3 h", "value": "7.717 ± 4.349", "unit": "%ID/g"}, {"measurement": "%ID/g CS (contralateral muscle)", "setting": "3 h", "value": "0.524 ± 0.172", "unit": "%ID/g"}, {"measurement": "%ID/g Gonad", "setting": "3 h", "value": "0.231 ± 0.068", "unit": "%ID/g"}, {"measurement": "%ID/g Heart", "setting": "3 h", "value": "0.326 ± 0.175", "unit": "%ID/g"}, {"measurement": "%ID/g Kidney", "setting": "3 h", "value": "2.591 ± 1.120", "unit": "%ID/g"}, {"measurement": "%ID/g Liver", "setting": "3 h", "value": "0.431 ± 0.312", "unit": "%ID/g"}, {"measurement": "%ID/g Lung", "setting": "3 h", "value": "0.298 ± 0.250", "unit": "%ID/g"}, {"measurement": "%ID/g MB (model bone)", "setting": "3 h", "value": "5.922 ± 2.126", "unit": "%ID/g"}, {"measurement": "%ID/g Small intestine", "setting": "3 h", "value": "0.404 ± 0.047", "unit": "%ID/g"}, {"measurement": "%ID/g Spleen", "setting": "3 h", "value": "0.227 ± 0.141", "unit": "%ID/g"}, {"measurement": "%ID/g Stomach", "setting": "3 h", "value": "2.064 ± 0.207", "unit": "%ID/g"}, {"measurement": "%ID/g Thyroid gland", "setting": "3 h", "value": "0.282 ± 0.149", "unit": "%ID/g"}, {"measurement": "CB/CS ratio", "setting": "3 h", "value": 14.731}, {"measurement": "CB/heart ratio", "setting": "3 h", "value": 23.637}, {"measurement": "CB/liver ratio", "setting": "3 h", "value": 17.896}, {"measurement": "MB/CB ratio", "setting": "3 h", "value": 0.767}, {"measurement": "MB/CS ratio", "setting": "3 h", "value": 11.305}, {"measurement": "MB/heart ratio", "setting": "3 h", "value": 18.139}, {"measurement": "MB/liver ratio", "setting": "3 h", "value": 13.734}, {"measurement": "%ID/g Blood", "setting": "6 h", "value": "0.302 ± 0.092", "unit": "%ID/g"}, {"measurement": "%ID/g Brain", "setting": "6 h", "value": "0.042 ± 0.042", "unit": "%ID/g"}, {"measurement": "%ID/g CB (contralateral bone)", "setting": "6 h", "value": "7.662 ± 2.934", "unit": "%ID/g"}, {"measurement": "%ID/g CS (contralateral muscle)", "setting": "6 h", "value": "0.153 ± 0.083", "unit": "%ID/g"}, {"measurement": "%ID/g Gonad", "setting": "6 h", "value": "0.106 ± 0.022", "unit": "%ID/g"}, {"measurement": "%ID/g Heart", "setting": "6 h", "value": "0.183 ± 0.097", "unit": "%ID/g"}, {"measurement": "%ID/g Kidney", "setting": "6 h", "value": "2.587 ± 0.126", "unit": "%ID/g"}, {"measurement": "%ID/g Liver", "setting": "6 h", "value": "0.368 ± 0.054", "unit": "%ID/g"}, {"measurement": "%ID/g Lung", "setting": "6 h", "value": "0.257 ± 0.030", "unit": "%ID/g"}, {"measurement": "%ID/g MB (model bone)", "setting": "6 h", "value": "8.417 ± 1.820", "unit": "%ID/g"}, {"measurement": "%ID/g Small intestine", "setting": "6 h", "value": "0.242 ± 0.118", "unit": "%ID/g"}, {"measurement": "%ID/g Spleen", "setting": "6 h", "value": "0.176 ± 0.029", "unit": "%ID/g"}, {"measurement": "%ID/g Stomach", "setting": "6 h", "value": "1.176 ± 0.190", "unit": "%ID/g"}, {"measurement": "%ID/g Thyroid gland", "setting": "6 h", "value": "0.354 ± 0.217", "unit": "%ID/g"}, {"measurement": "CB/CS ratio", "setting": "6 h", "value": 50.044}, {"measurement": "CB/heart ratio", "setting": "6 h", "value": 41.876}, {"measurement": "CB/liver ratio", "setting": "6 h", "value": 20.818}, {"measurement": "MB/CB ratio", "setting": "6 h", "value": 1.099}, {"measurement": "MB/CS ratio", "setting": "6 h", "value": 54.970}, {"measurement": "MB/heart ratio", "setting": "6 h", "value": 45.999}, {"measurement": "MB/liver ratio", "setting": "6 h", "value": 22.867}, {"measurement": "%ID/g Blood", "setting": "24 h", "value": "0.045 ± 0.020", "unit": "%ID/g"}, {"measurement": "%ID/g Brain", "setting": "24 h", "value": "0.037 ± 0.020", "unit": "%ID/g"}, {"measurement": "%ID/g CB (contralateral bone)", "setting": "24 h", "value": "4.413 ± 2.225", "unit": "%ID/g"}, {"measurement": "%ID/g CS (contralateral muscle)", "setting": "24 h", "value": "0.081 ± 0.050", "unit": "%ID/g"}, {"measurement": "%ID/g Gonad", "setting": "24 h", "value": "0.069 ± 0.018", "unit": "%ID/g"}, {"measurement": "%ID/g Heart", "setting": "24 h", "value": "0.052 ± 0.027", "unit": "%ID/g"}, {"measurement": "%ID/g Kidney", "setting": "24 h", "value": "0.640 ± 0.175", "unit": "%ID/g"}, {"measurement": "%ID/g Liver", "setting": "24 h", "value": "0.089 ± 0.027", "unit": "%ID/g"}, {"measurement": "%ID/g Lung", "setting": "24 h", "value": "0.101 ± 0.038", "unit": "%ID/g"}, {"measurement": "%ID/g MB (model bone)", "setting": "24 h", "value": "6.403 ± 0.247", "unit": "%ID/g"}, {"measurement": "%ID/g Small intestine", "setting": "24 h", "value": "0.049 ± 0.003", "unit": "%ID/g"}, {"measurement": "%ID/g Spleen", "setting": "24 h", "value": "0.066 ± 0.024", "unit": "%ID/g"}, {"measurement": "%ID/g Stomach", "setting": "24 h", "value": "0.192 ± 0.092", "unit": "%ID/g"}, {"measurement": "%ID/g Thyroid gland", "setting": "24 h", "value": "0.082 ± 0.030", "unit": "%ID/g"}, {"measurement": "CB/CS ratio", "setting": "24 h", "value": 54.620}, {"measurement": "CB/heart ratio", "setting": "24 h", "value": 85.157}, {"measurement": "CB/liver ratio", "setting": "24 h", "value": 49.848}, {"measurement": "MB/CB ratio", "setting": "24 h", "value": 1.451}, {"measurement": "MB/CS ratio", "setting": "24 h", "value": 79.255}, {"measurement": "MB/heart ratio", "setting": "24 h", "value": 123.563}, {"measurement": "MB/liver ratio", "setting": "24 h", "value": 72.330}, {"measurement": "%ID/g Blood", "setting": "48 h", "value": "0.021 ± 0.008", "unit": "%ID/g"}, {"measurement": "%ID/g Brain", "setting": "48 h", "value": "0.021 ± 0.009", "unit": "%ID/g"}, {"measurement": "%ID/g CB (contralateral bone)", "setting": "48 h", "value": "4.737 ± 0.863", "unit": "%ID/g"}, {"measurement": "%ID/g CS (contralateral muscle)", "setting": "48 h", "value": "0.041 ± 0.022", "unit": "%ID/g"}, {"measurement": "%ID/g Gonad", "setting": "48 h", "value": "0.028 ± 0.001", "unit": "%ID/g"}, {"measurement": "%ID/g Heart", "setting": "48 h", "value": "0.035 ± 0.013", "unit": "%ID/g"}, {"measurement": "%ID/g Kidney", "setting": "48 h", "value": "0.121 ± 0.034", "unit": "%ID/g"}, {"measurement": "%ID/g Liver", "setting": "48 h", "value": "0.044 ± 0.013", "unit": "%ID/g"}, {"measurement": "%ID/g Lung", "setting": "48 h", "value": "0.047 ± 0.005", "unit": "%ID/g"}, {"measurement": "%ID/g MB (model bone)", "setting": "48 h", "value": "6.503 ± 0.010", "unit": "%ID/g"}, {"measurement": "%ID/g Small intestine", "setting": "48 h", "value": "0.030 ± 0.018", "unit": "%ID/g"}, {"measurement": "%ID/g Spleen", "setting": "48 h", "value": "0.022 ± 0.013", "unit": "%ID/g"}, {"measurement": "%ID/g Stomach", "setting": "48 h", "value": "0.027 ± 0.019", "unit": "%ID/g"}, {"measurement": "%ID/g Thyroid gland", "setting": "48 h", "value": "0.020 ± 0.010", "unit": "%ID/g"}, {"measurement": "CB/CS ratio", "setting": "48 h", "value": 115.161}, {"measurement": "CB/heart ratio", "setting": "48 h", "value": 133.599}, {"measurement": "CB/liver ratio", "setting": "48 h", "value": 106.617}, {"measurement": "MB/CB ratio", "setting": "48 h", "value": 1.373}, {"measurement": "MB/CS ratio", "setting": "48 h", "value": 158.088}, {"measurement": "MB/heart ratio", "setting": "48 h", "value": 183.399}, {"measurement": "MB/liver ratio", "setting": "48 h", "value": 146.359}]}]}
